The source of these data is ChEMBL document CHEMBL5209580, “Flow cytometry transport assay for SLC2A3 using HEK293 JumpIN TRex SLC2A3 WT-OE cells” (2022).

For the assay, the target named is T1, Solute carrier family 2, facilitated glucose transporter member 3 (Homo sapiens, UniProt P11169).
T1 sequence (P11169 whole entry): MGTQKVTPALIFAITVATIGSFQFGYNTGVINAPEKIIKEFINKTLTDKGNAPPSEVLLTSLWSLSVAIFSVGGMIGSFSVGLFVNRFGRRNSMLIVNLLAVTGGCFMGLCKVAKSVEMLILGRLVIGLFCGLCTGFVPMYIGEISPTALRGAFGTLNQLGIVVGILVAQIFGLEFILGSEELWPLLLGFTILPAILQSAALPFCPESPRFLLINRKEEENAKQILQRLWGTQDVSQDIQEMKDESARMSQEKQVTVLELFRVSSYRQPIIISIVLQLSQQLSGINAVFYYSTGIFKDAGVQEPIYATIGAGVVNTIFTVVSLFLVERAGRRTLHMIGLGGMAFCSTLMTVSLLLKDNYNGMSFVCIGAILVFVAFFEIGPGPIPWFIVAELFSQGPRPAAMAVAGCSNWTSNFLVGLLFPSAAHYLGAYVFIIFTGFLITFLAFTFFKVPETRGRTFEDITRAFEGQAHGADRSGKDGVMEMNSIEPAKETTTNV
As to the kind of experiment: Inhibition of the Glucose Transporter (GLUT3, SLC2A3) as assessed by a FRET based flow cytometry assay using a genetically-encoded biosensor for measuring free glucose (FLII12Pglu-700uDelta6) in HEK293 JumpIN TRex SLC2A3 WT-OE cells (PubChem AID: 1794827). The format is functional, cell-based.

For `O=C(Oc1cccc(F)c1OC(=O)c1cccc(O)c1)c1cccc(O)c1`, the IC50 was > 10 µM.
